Measurements: patent US20200405752A1, “ANTITUMOR AGENT, ANTITUMOR EFFECT ENHANCER, AND ANTITUMOR KIT” (FUJIFILM Corporation, priority 2018, published 2020)
Where two headings read alike, the source gives them in different places.

What was measured:
[1] = tested on: human ovarian cancer cell line ES-2; assay: Cell viability (CellTiter Glo) of ES-2 in combination with cisplatin or carboplatin; type: cell-based; settings: for CI: ES-2 Cell; for viability at 0.001 µM / viability at 0.003 µM / viability at 0.01 µM / viability at 0.03 µM / viability at 0.1 µM / viability at 0.3 µM / viability at 1 µM / viability at 3 µM / viability at 10 µM / IC50: Homo sapiens; for viability at 0.001 µM / viability at 0.003 µM / viability at 0.01 µM / viability at 0.03 µM / viability at 0.1 µM / viability at 0.3 µM / viability at 1 µM / viability at 3 µM / viability at 10 µM: 72 h, 3 days; for viability at 0.001 µM: test substance 1 nM; for viability at 0.003 µM: test substance 3 nM; for viability at 0.01 µM: test substance 10 nM; for viability at 0.03 µM: test substance 30 nM; for viability at 0.1 µM: test substance 100 nM; for viability at 0.3 µM: test substance 300 nM; for viability at 1 µM: test substance 1000 nM; for viability at 3 µM: test substance 3000 nM; for viability at 10 µM: test substance 10000 nM
Source text: On the combinational effect of the embodiment of the invention, the results of evaluation using a combination index (CI) which is a quantitative index of the combinational effect are shown. The CI can be calculated by the following equation according to Cancer Research, 2010, Vol. 70, pp. 440 to 446.
That is, in a case where the drugs to be used in combination are drug 1 and drug 2, the CI at a certain drug concentration is
CI={(cell viability in case of using drug 1 and drug 2 in combination)/100}/{[(cell viability in case of using drug 1)/100]×[(cell viability in case of using drug 2)/100]}
Evaluation of antitumor activity against human ovarian cancer cell lines ES-2 and SK-OV-3 in combination with cisplatin and carboplatin
Furthermore, the antitumor activity against human ovarian cancer-derived cell lines ES-2 and SK-OV-3 in combination with cisplatin and carboplatin was evaluated in the same manner as in Test Example 1.
Gemcitabine, cisplatin, carboplatin, and methanesulfonate of Compound A were used as test substances.
Gemcitabine hydrochloride (manufactured by Plantex Co., Ltd.) dissolved in DMSO was used as gemcitabine. Cisplatin (Cat. #039-20091, manufactured by Wako Pure Chemical Industries, Ltd.) and carboplatin (Cat. #C2043, manufactured by Tokyo Chemical Industry Co., Ltd.), each of which dissolved in McCoy's 5a medium (Cat. #16600-082, manufactured by Thermo Fisher Scientific Inc.) supplemented with 1% serum (Cat. #10437-028, manufactured by Thermo Fisher Scientific Inc.), were used as cisplatin and carboplatin, respectively.
Human ovarian cancer cell line ES-2 and SK-OV-3 cells were subcultured in 10% serum-supplemented medium. During this test, all cell cultures were carried out in a CO2 incubator (set to 37° C. and 5% CO2, saturated with water vapor). ES-2 cells were diluted with 10% serum-supplemented medium to a cell density of 10000 cells/well/100 μL and SK-OV-3 cells were diluted with 10% serum-supplemented medium to a cell density of 15000 cells/well/100 μL, and then seeded on a 96-well plate. On the next day, the culture supernatant of each well was discarded, followed by washing twice with 150 μL of 1% serum-supplemented medium, and 100 μL of 1% serum-supplemented medium was added thereto, followed by culturing for 3 days.
The methanesulfonate of Compound A and gemcitabine were dissolved in DMSO to prepare 100 mmol/L DMSO solutions thereof. The thus-prepared DMSO solutions were diluted sequentially with DMSO to prepare DMSO solutions having a final treatment concentration of 1000-fold dilution. Cisplatin and carboplatin were dissolved in 1% serum-supplemented medium to prepare a cisplatin solution 60 μmol/L and a carboplatin solution 600 μmol/L, respectively. The DMSO diluted solutions of Compound A and gemcitabine were diluted with the cisplatin solution (60 μmol/L) or the Carboplatin solution (600 μmol/L) to prepare treatment liquids having a final treatment concentration of 6-fold dilution. Compound A and gemcitabine were used with a maximum concentration of 10 μmol/L at a common ratio of 1/3 and 9 concentrations in combination with cisplatin or Carboplatin.
20 μL of Compound A or gemcitabine diluted with the cisplatin solution (60 μmol/L) or the Carboplatin solution (600 μmol/L) was added to each well. In addition, a group in which only a solvent containing no drug was added to wells in which cells were seeded (positive control), and a group in which only a solvent containing no drug was added to wells containing only a medium (negative control) were provided. All groups were set to n=3 well.
The cells were cultured for 3 days after the addition of the drug, and the cell viability was evaluated using a CellTiter Glo (registered trademark) Reagent (Cat. #G7570, manufactured by Promega Corporation) with the intracellular ATP level as an index. […]

[2] = orally administered to mice; cited from earlier work
[3] = tested on: pancreatic cancer patient; settings: cited from earlier work
[4] = ES-2, with carboplatin 100 μmol/L
[5] = ES-2, used in combination with carboplatin (100 μmol/L, Table 6)
[6] = ES-2, used in combination with cisplatin (10 μmol/L, Table 3)

| Structure (SMILES) | CI ([1]; combination with Carboplatin) | CI ([1]; combination with Cisplatin) | viability at 0.001 µM [1, 4] | viability at 0.003 µM [1, 4] | viability at 0.01 µM [1, 4] | viability at 0.03 µM [1, 4] | viability at 0.1 µM [1, 4] | viability at 0.3 µM [1, 4] | viability at 1 µM [1, 4] | viability at 3 µM [1, 4] | viability at 10 µM [1, 4] | viability at 0.001 µM ([1]; ES-2, with cisplatin 10 μmol/L) | viability at 0.003 µM ([1]; ES-2, with cisplatin 10 μmol/L) | viability at 0.01 µM ([1]; ES-2, with cisplatin 10 μmol/L) | viability at 0.03 µM ([1]; ES-2, with cisplatin 10 μmol/L) | viability at 0.1 µM ([1]; ES-2, with cisplatin 10 μmol/L) | viability at 0.3 µM ([1]; ES-2, with cisplatin 10 μmol/L) | viability at 1 µM ([1]; ES-2, with cisplatin 10 μmol/L) | viability at 3 µM ([1]; ES-2, with cisplatin 10 μmol/L) | viability at 10 µM ([1]; ES-2, with cisplatin 10 μmol/L) | further results |
| --- | --- | --- | --- | --- | --- | --- | --- | --- | --- | --- | --- | --- | --- | --- | --- | --- | --- | --- | --- | --- | --- |
| Nc1ccn([C@@H]2S[C@H](CO)[C@@H](O)[C@@H]2F)c(=O)n1 [Compound A, 1-(2-deoxy-2-fluoro-4-thio-β-D-arabinofuranosyl)cytosine] | 0.4 | 0.3 | 73% | 70% | 69% | 57% | 36% | 28% | 24% | 22% | 21% | 78% | 78% | 77% | 68% | 37% | 26% | 23% | 23% | 21% | IC50 [1, 5]: 46 nM; IC50 [1, 6]: 63.2 nM; antitumor activity [2]: potent antitumor activity |
| Nc1ccn([C@@H]2O[C@H](CO)[C@@H](O)C2(F)F)c(=O)n1 [Gemcitabine] | 0.9 | 1.1 | 76% | 74% | 71% | 71% | 72% | 71% | 69% | 62% | 48% | 74% | 78% | 78% | 79% | 79% | 79% | 74% | 65% | 50% | IC50 value [1, 6]: could not be calculated; IC50 [1, 5]: ≥ 10000 nM; median survival time ([3]; combination with cisplatin): 7.5 months; response rate ([3]; combination with cisplatin): 11.5%; median survival time ([3]; combination with oxaliplatin): 5.7 months; response rate ([3]; combination with oxaliplatin): 9% |
